Assay results taken from patent publication US9108944B2, “Androgen receptor modulators and uses thereof” (ARAGON PHARMACEUTICALS, INC., priority 2010, dated 2015).

Assays:
AR-VP16 [1] = biological target: T1, AR-VP16 (Homo sapiens, UniProt P10275); experiment: AR-VP16 DNA Binding Assay, antagonist mode (HepG2 cells, 0.1 nM R1881); format: cell-based
T1 sequence (P10275 560-920 limits assumed): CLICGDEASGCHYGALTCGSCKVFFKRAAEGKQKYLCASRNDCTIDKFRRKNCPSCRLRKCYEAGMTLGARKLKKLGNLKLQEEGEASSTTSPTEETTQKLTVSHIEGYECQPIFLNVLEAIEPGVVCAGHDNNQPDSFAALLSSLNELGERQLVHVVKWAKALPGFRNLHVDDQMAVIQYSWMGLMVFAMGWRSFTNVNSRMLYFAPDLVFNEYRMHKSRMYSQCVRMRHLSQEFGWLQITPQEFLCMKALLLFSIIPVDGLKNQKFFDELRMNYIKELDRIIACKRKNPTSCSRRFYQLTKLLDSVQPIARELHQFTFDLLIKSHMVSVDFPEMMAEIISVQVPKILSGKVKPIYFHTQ
Outline: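 HepG2 cells transiently transfected with AR-VP16 (Lipofectin), incubated overnight, then treated with compound in RPMI with charcoal-stripped serum. Antagonist mode adds R1881 at 0.1 nM final. Cells lysed after 48 h incubation for read-out.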

AR-VP16 [2] = biological target: T1, AR-VP16; experiment: AR-VP16 DNA Binding Assay, agonist mode (HepG2 cells); format: cell-based; details: Emax >20x DMSO control = agonist

Row | SMILES | IC50 (AR-VP16 [1]) [µM] | ARVP16 DNA Binding Assay (Agonist mode): Agonist? (AR-VP16 [2])
1 | N#Cc1ncc(N2C(=O)C3(CCC3)N(c3ccc(F)cc3F)C2=S)cc1C(F)(F)F [Compound 76, 5-(5-(2,4-Difluorophenyl)-8-oxo-6-thioxo-5,7-diazaspiro[3.4]octan-7-yl)-3-(trifluoromethyl)picolinonitrile] | < 1 | Yes (Agonist defined as a compound whose Emax in the ARVP16 DNA Binding Assay (Agonist mode) is >20x DMSO control)
2 | CNC(=O)c1ccc(N2C(=S)N(c3ccc(C#N)n4nccc34)C(=O)C23CCC3)cc1F [Compound 83, 4-(7-(7-Cyanopyrazolo[1,5-a]pyridin-4-yl)-8-oxo-6-thioxo-5,7-diazaspiro[3.4]octan-5-yl)-2-fluoro-N-methylbenzamide] | > 1 | No (Agonist defined as a compound whose Emax in the ARVP16 DNA Binding Assay (Agonist mode) is >20x DMSO control)
3 | CNC(=O)c1ccc(N2C(=S)N(c3cnc(C#N)c(C(F)(F)F)c3)C(=O)C23CCC3)c(F)c1 [Compound 89, 4-(7-(6-Cyano-5-(trifluoromethyl)pyridin-3-yl)-8-oxo-6-thioxo-5,7-diazaspiro[3.4]octan-5-yl)-3-fluoro-N-methylbenzamide] | < 1 | No (Agonist defined as a compound whose Emax in the ARVP16 DNA Binding Assay (Agonist mode) is >20x DMSO control)
4 | CN1CCN(Cc2ccc(N3C(=S)N(c4cnc(C#N)c(C(F)(F)F)c4)C(=O)C34CCC4)cc2)CC1 [Compound 93, 5-(5-(4-((4-Methylpiperazin-1-yl)methyl)phenyl)-8-oxo-6-thioxo-5,7-diazaspiro[3.4]octan-7-yl)-3-(trifluoromethyl)picolinonitrile] | > 1 | No (Agonist defined as a compound whose Emax in the ARVP16 DNA Binding Assay (Agonist mode) is >20x DMSO control)
5 | CN1CCN(CCCOc2ccc(N3C(=S)N(c4cnc(C#N)c(C(F)(F)F)c4)C(=O)C34CCC4)c(F)c2)CC1 [Compound 184, 5-(5-(2-Fluoro-4-(3-(4-methylpiperazin-1-yl)propoxy)phenyl)-8-oxo-6-thioxo-5,7-diazaspiro[3.4]octan-7-yl)-3-(trifluoromethyl)picolinonitrile] | < 1 | Yes (Agonist defined as a compound whose Emax in the ARVP16 DNA Binding Assay (Agonist mode) is >20x DMSO control)
6 | Cc1cc(N2C(=O)C3(CCC3)N(c3ccc(OC4CCSCC4)cc3)C2=S)cnc1C#N [Compound 195, 3-Methyl-5-(8-oxo-5-(4-((tetrahydro-2H-thiopyran-4-yl)oxy)phenyl)-6-thioxo-5,7-diazaspiro[3.4]octan-7-yl)picolinonitrile] | < 1 | No (Agonist defined as a compound whose Emax in the ARVP16 DNA Binding Assay (Agonist mode) is >20x DMSO control)
7 | N#Cc1ncc(N2C(=O)C3(CCC3)N(c3ccc(OCCn4cccc4)c(F)c3)C2=S)cc1C(F)(F)F [Compound 146, 5-(5-(4-(2-(1H-Pyrrol-1-yl)ethoxy)-3-fluorophenyl)-8-oxo-6-thioxo-5,7-diazaspiro[3.4]octan-7-yl)-3-(trifluoromethyl)picolinonitrile] | < 1 | No (Agonist defined as a compound whose Emax in the ARVP16 DNA Binding Assay (Agonist mode) is >20x DMSO control)
8 | CCOC(=O)COc1ccc(N2C(=S)N(c3cnc(C#N)c(C(F)(F)F)c3)C(=O)C23CCC3)cc1F [Compound 132, Ethyl 2-(4-(7-(6-cyano-5-(trifluoromethyl)pyridin-3-yl)-8-oxo-6-thioxo-5,7-diazaspiro[3.4]octan-5-yl)-2-fluorophenoxy)acetate] | > 1 | No (Agonist defined as a compound whose Emax in the ARVP16 DNA Binding Assay (Agonist mode) is >20x DMSO control)
